One assay has as its target T1, human FPR2 (Homo sapiens, UniProt P25090).
T1 sequence (P25090 1-351): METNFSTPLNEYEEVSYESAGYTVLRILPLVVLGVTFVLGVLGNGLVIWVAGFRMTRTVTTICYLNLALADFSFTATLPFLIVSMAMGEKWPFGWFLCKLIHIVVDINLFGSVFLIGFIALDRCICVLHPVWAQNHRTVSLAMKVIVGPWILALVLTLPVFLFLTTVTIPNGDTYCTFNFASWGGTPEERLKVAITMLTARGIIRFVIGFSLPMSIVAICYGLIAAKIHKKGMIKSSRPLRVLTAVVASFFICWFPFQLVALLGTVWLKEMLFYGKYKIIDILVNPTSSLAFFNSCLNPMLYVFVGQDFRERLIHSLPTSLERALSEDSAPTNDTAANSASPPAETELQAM
In words: FPR2 cyclic adenosine monophosphate (cAMP) assay. Format: cell-based. The settings on record: CHO cells overexpressing human FPR2; forskolin 5 μM; inhibition of cAMP production; HTRF; read-out: hFPR2 cAMP2 EC50. The source says: (§1) N-formyl peptide receptors (FPRs) are a family of chemo attractant receptors that facilitate leukocyte response during inflammation. FPRs belong to the seven-transmembrane G protein-coupled receptor superfamily and are linked to inhibitory G-proteins (Gi). Three family members (FPR1, FPR2 and FPR3) have been identified in humans and are predominantly found in myeloid cells with varied distribution and have also been reported in multiple organs and tissues. After agonist binding, the FPRs activate a multitude of physiological pathways, such as intra cellular signaling transduction, Ca^2+ mobilization and transcription. The family interacts with a diverse set of ligands that includes proteins, polypeptides and fatty acid metabolites which activate both pro-inflammatory and pro-resolution downstream responses. FPR2 and FPR1 Cyclic Adenosine Monophosphate (cAMP) Assays were used to measure the in vitro activity of the compounds disclosed in this application.
(§2) FPR2 and FPR1 Cyclic Adenosine Monophosphate (cAMP) Assays. A mixture of forskolin (5 μM final for FPR2 or 10 μM final for FPR1) and IBMX (200 μM final) were added to 384-well Proxiplates (Perkin-Elmer) pre-dotted with test compounds in DMSO (1% final) at final concentrations in the range of 0.020 nM to 100 μM. Chinese Hamster Ovary cells (CHO) overexpressing human FPR1 or human FPR2 receptors were cultured in F-12 (Ham's) medium supplemented with 10% qualified FBS, 250 μg/mL zeocin and 300 μg/mL hygromycin (Life Technologies). Reactions were initiated by adding 2,000 human FPR2 cells per well or 4,000 human FPR1 cells per well in Dulbecco's PBS (with calcium and magnesium) (Life Technologies) supplemented with 0.1% BSA (Perkin-Elmer). The reaction mixtures were incubated for 30 min at rt. The level of intracellular cAMP was determined using the HTRF HiRange cAMP assay reagent kit (Cisbio) according to manufacturer's instruction. Solutions of cryptate conjugated anti-cAMP and d2 flurorophore-labeled cAMP were made in a supplied lysis buffer separately. Upon completion of the reaction, the cells were lysed with equal volume of the d2-cAMP solution and anti-cAMP solution. […] The potency and activity of a compound to inhibit cAMP production was then determined by fitting to a 4-parametric logistic equation from a plot of cAMP level versus compound concentrations.
In general terms: cAMP levels reflect the balance of adenylyl cyclase and phosphodiesterase activity.

The target of a further assay is T2, human FPR1 (Homo sapiens, UniProt P21462).
T2 sequence (P21462 1-350): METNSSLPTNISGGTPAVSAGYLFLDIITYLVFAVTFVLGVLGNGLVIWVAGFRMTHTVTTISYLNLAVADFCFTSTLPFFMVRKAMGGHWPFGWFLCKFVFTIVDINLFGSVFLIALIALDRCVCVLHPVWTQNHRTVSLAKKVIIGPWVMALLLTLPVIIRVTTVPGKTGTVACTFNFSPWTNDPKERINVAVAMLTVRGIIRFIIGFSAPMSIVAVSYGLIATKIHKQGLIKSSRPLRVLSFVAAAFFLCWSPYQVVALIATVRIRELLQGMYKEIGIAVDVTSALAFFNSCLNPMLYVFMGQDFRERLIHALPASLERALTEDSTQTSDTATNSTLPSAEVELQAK
In words: FPR1 cyclic adenosine monophosphate (cAMP) assay. Format: cell-based. The settings on record: CHO cells overexpressing human FPR1; forskolin 10 μM; inhibition of cAMP production; HTRF; read-out: hFPR1 cAMP2 EC50.
From the text: as §1, §2

For orientation: EC50 means the concentration giving half of the maximal effect.

`COc1cc(F)c(-c2c(NC(=O)c3ccc(OC(F)F)cc3)c(=O)n(-c3cccc(C)c3C)n2C)c(F)c1` [Example 3, N-[5-(2,6-difluoro-4-methoxyphenyl)-2-(2,3-dimethylphenyl)-1-methyl-3-oxo-2,3-dihydro-1H-pyrazol-4-yl]-4-(difluoromethoxy)benzamide]: the values for the EC50 on human FPR2 and on human FPR1 were 8 nM and 1900 nM, respectively.

For the molecule `COc1cc(F)c(-c2c(NC(=O)c3ccc(OC(F)(F)F)cc3)c(=O)n(-c3ccccc3)n2C)c(F)c1` [Example 4, N-[5-(2,6-difluoro-4-methoxyphenyl)-1-methyl-3-oxo-2-phenyl-2,3-dihydro-1H-pyrazol-4-yl]-4-(trifluoromethoxy)benzamide], the EC50 was 8 nM on human FPR2 and 1300 nM on human FPR1.

As to `COc1cc(F)c(-c2c(NC(=O)c3ccc(C(F)(F)F)cc3)c(=O)n(-c3ccccc3)n2C)c(F)c1` [Example 5, N-[5-(2,6-difluoro-4-methoxyphenyl)-1-methyl-3-oxo-2-phenyl-2,3-dihydro-1H-pyrazol-4-yl]-4-(trifluoromethyl)benzamide], the figures for the EC50 at human FPR2 and on human FPR1 were 10 nM and 2900 nM, respectively.

On to `COc1ccc(-c2c(NC(=O)c3ccc(OC(F)F)cc3)c(=O)n(-c3ccccc3)n2C)cc1` [Example 7, 4-(difluoromethoxy)-N-[5-(4-methoxyphenyl)-1-methyl-3-oxo-2-phenyl-2,3-dihydro-1H-pyrazol-4-yl]benzamide], for which the values for the EC50 on human FPR2 and on human FPR1 were 10 nM and 300 nM, respectively.

Consider `COc1cc(F)c(-c2c(NC(=O)c3ccc(Cl)cc3)c(=O)n(-c3ccccc3)n2C)c(F)c1` [Example 9, 4-chloro-N-[5-(2,6-difluoro-4-methoxyphenyl)-1-methyl-3-oxo-2-phenyl-2,3-dihydro-1H-pyrazol-4-yl]benzamide], for which the EC50 at human FPR2 is 11 nM; on human FPR1 it was > 10000 nM.

In the case of `COc1cc(F)c(-c2c(NC(=O)c3ccc(OC(F)(F)F)cc3)c(=O)n(-c3ccc(F)cc3)n2C)c(F)c1` [Example 10, N-[5-(2,6-difluoro-4-methoxyphenyl)-2-(4-fluorophenyl)-1-methyl-3-oxo-2,3-dihydro-1H-pyrazol-4-yl]-4-(trifluoromethoxy)benzamide], the 50% effective concentration (EC50) at human FPR2 worked out at 14 nM; at human FPR1 it was 920 nM.

On to `COc1cc(F)c(-c2c(NC(=O)c3ccc(OC(F)F)cc3)c(=O)n(-c3ccc(F)cc3)n2C)c(F)c1` [Example 12, N-[5-(2,6-difluoro-4-methoxyphenyl)-2-(4-fluorophenyl)-1-methyl-3-oxo-2,3-dihydro-1H-pyrazol-4-yl]-4-(difluoromethoxy)benzamide], for which the EC50 on human FPR2 is 17 nM; at human FPR1, 1600 nM.

For `COc1cc(F)c(-c2c(NC(=O)c3ccc(OC(F)F)cc3)c(=O)n(C3CC3)n2C)c(F)c1` [Example 13, N-[2-cyclopropyl-5-(2,6-difluoro-4-methoxyphenyl)-1-methyl-3-oxo-2,3-dihydro-1H-pyrazol-4-yl]-4-(difluoromethoxy)benzamide], the EC50 on human FPR2 stood at 22 nM; at human FPR1 it was 2400 nM.

With `COc1cc(F)c(-c2c(NC(=O)c3ccc(OC(F)F)cc3)c(=O)n(-c3cc(F)ccc3C)n2C)c(F)c1` [Example 14, N-[5-(2,6-difluoro-4-methoxyphenyl)-2-(5-fluoro-2-methylphenyl)-1-methyl-3-oxo-2,3-dihydro-1H-pyrazol-4-yl]-4-(difluoromethoxy)benzamide], the 50% effective concentration (EC50) on human FPR2 is 23 nM; on human FPR1, > 10000 nM.

In the case of `COc1cc(F)c(-c2c(NC(=O)c3ccc(Cl)cc3)c(=O)n(-c3ccc(F)cc3)n2C)c(F)c1` [Example 15, 4-chloro-N-[5-(2,6-difluoro-4-methoxyphenyl)-2-(4-fluorophenyl)-1-methyl-3-oxo-2,3-dihydro-1H-pyrazol-4-yl]benzamide], the EC50 was 30 nM on human FPR2 and > 10000 nM at human FPR1.

Source of the values: patent US12577206B2 (BRISTOL-MYERS SQUIBB COMPANY, priority 2020, dated 2026).
